Test results published in ChEMBL document CHEMBL5523719, “Structure-activity relationship study of new carbazole sulfonamide derivatives as anticancer agents with dual-target mechanism” (Eur J Med Chem, 2024).
Active and inactive are the calls of the source. No cut-off for these calls is given here.

Key:
MDA-MB-231 = assay: Antiproliferation activity against human MDA-MB-231 cells measured after 72 hrs incubation by MTT assay; type: functional, cell-based; conditions: MDA-MB-231, 72 h
MIA PaCa-2 = assay: Antiproliferation activity against human MIA PaCa-2 cells measured after 72 hrs incubation by MTT assay; type: functional, cell-based; conditions: MIA PaCa-2, 72 h
NCI-H460 = assay: Antiproliferation activity against human NCI-H460 cells measured after 72 hrs incubation by MTT assay; type: functional, cell-based; conditions: NCI-H460, 72 h
KB = assay: Antiproliferation activity against human KB cells measured after 72 hrs incubation by MTT assay; type: functional, cell-based
L02 = assay: Antiproliferation activity against human L02 cells measured after 72 hrs incubation by MTT assay; type: functional, cell-based; conditions: L02, 72 h
MCF7 [1] = assay: In vivo antitumor activity against human MCF7 cells xenografted in BALB/c mouse assessed as inhibition of tumor growth treated iv every other day for 26 days; type: functional, organism-based; conditions: time 26.0 day
MCF7 [2] = assay: In vivo antitumor activity against human MCF7 cells xenografted in BALB/c mouse assessed as decrease in tumor volume treated at 2.5 mg/kg, iv every other day for 26 days relative to control; type: functional; conditions: MCF7, 624 h, time 26 day
MCF7 [3] = assay: In vivo antitumor activity against human MCF7 cells xenografted in BALB/c mouse assessed as decrease in tumor volume treated at 5 mg/kg, iv every other day for 26 days relative to control; type: functional; conditions: MCF7, 624 h, time 26 day
[4] = Toxicity in BALB/c mouse xenografted with human MCF7 cells assessed as lesions in heart at 5 mg/kg, iv every other day for 26 days by H and E staining based assay; type: organism-based; conditions: in vivo, 624 h, time 26 day
[5] = Toxicity in BALB/c mouse xenografted with human MCF7 cells assessed as lesions in liver at 5 mg/kg, iv every other day for 26 days by H and E staining based assay; type: organism-based; conditions: in vivo, 624 h, time 26 day
[6] = Toxicity in BALB/c mouse xenografted with human MCF7 cells assessed as lesions in spleen at 5 mg/kg, iv every other day for 26 days by H and E staining based assay; type: organism-based; conditions: in vivo, 624 h, time 26 day
[7] = Toxicity in BALB/c mouse xenografted with human MCF7 cells assessed as lesions in lung at 5 mg/kg, iv every other day for 26 days by H and E staining based assay; type: organism-based; conditions: in vivo, 624 h, time 26 day
[8] = Toxicity in BALB/c mouse xenografted with human MCF7 cells assessed as lesions in kidney at 5 mg/kg, iv every other day for 26 days by H and E staining based assay; type: organism-based; conditions: in vivo, 624 h, time 26 day
MCF7 [9] = assay: In vivo antitumor activity against human MCF7 cells xenografted in BALB/c mouse assessed as inhibition of Ki-67 expression treated at 5 mg/kg, iv every other day for 26 days; type: functional, organism-based; conditions: time 26.0 day
MCF7 [10] = assay: In vivo antitumor activity against human MCF7 cells xenografted in BALB/c mouse assessed as increase in cleaved caspase-3 treated at 5 mg/kg, iv every other day for 26 days; type: functional, organism-based; conditions: time 26.0 day

- IC50 (MDA-MB-231): 102 nM
- IC50 (MIA PaCa-2): 72.1 nM
- IC50 (NCI-H460): 41.6 nM
- IC50 (KB): 23 nM
Compound: COc1cc(NS(=O)(=O)c2ccc3c(c2)c2ccc(NC(=O)[C@@H](N)C(C)C)cc2n3C)c(OC)cc1Cl.Cl
- IC50 (L02): 43.2 nM
- TGI (MCF7 [1]): Dose-Dependent Effect
- inhibition in vivo at 2.5 mg/kg (MCF7 [2]): 38%
- inhibition in vivo at 5 mg/kg (MCF7 [3]): 66%
- Activity [4]: Non-Toxic
- Activity [5]: Non-Toxic
- Activity [6]: Non-Toxic
- Activity [7]: Non-Toxic
- Activity [8]: Non-Toxic
- Activity (MCF7 [9]): Active
- Activity (MCF7 [10]): Active
